# Measured values reported in patent US6342602B1, “Aryl or heteroaryl amides of tetrahydronaphthalene, chroman, thichroman and 1,2,3,4-tetrahydroquinolinecarboxlic acids, having an electron withdrawing substituent in the aromatic or heteroaromatic moiety, having retinoid-like biological activity” (Allergan Sales, Inc., priority 1995, dated 2002).
# Columns and labels:
# RXRβ = target: T1, RXRβ (Homo sapiens, UniProt P28702); test: Ligand binding assay; details: receptor expressed in Baculovirus; competition with [3H] retinoic acid; Cheng-Prusoff from IC50
# T1 construct: made in house; used as extract protein
# T1 sequence (P28702 1-533): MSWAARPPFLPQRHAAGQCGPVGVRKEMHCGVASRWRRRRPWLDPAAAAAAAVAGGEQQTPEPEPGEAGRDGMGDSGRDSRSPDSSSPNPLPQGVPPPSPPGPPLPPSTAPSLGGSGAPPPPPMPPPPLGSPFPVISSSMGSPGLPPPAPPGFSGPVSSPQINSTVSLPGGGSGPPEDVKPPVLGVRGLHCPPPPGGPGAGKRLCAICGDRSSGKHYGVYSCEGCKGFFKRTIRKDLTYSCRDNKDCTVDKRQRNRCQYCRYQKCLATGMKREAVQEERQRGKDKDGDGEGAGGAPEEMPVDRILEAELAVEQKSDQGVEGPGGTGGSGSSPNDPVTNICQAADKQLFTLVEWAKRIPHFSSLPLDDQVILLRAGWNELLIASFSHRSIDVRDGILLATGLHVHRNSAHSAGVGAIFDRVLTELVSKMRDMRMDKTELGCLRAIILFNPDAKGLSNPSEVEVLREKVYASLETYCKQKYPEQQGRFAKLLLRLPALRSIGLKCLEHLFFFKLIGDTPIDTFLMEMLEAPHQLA
# Procedure: (§1) A holoreceptor transactivation assay and a ligand binding assay which measure the ability of the compounds of the invention to bind to the several retinoid receptor subtypes, respectively, are described in published PCT Application No. WO WO93/11755 (particularly on pages 30-33 and 37-41) published on Jun. 24, 1993, the specification of which is also incorporated herein by reference. A description of the ligand binding assay is also provided below.
# (§2) All binding assays were performed in a similar fashion. All six receptor types were derived from the expressed receptor type (RAR α, β, τ and RXR α, β, τ) expressed in Baculovirus. Stock solutions of all compounds were prepared as 10 mM ethanol solutions and serial dilutions carried out into 1:1 DMSO; ethanol. Assay buffers consisted of the following for all six receptor assays: 8% glycerol, 120 mM KCl, 8 mM Tris, 5 mM CHAPS 4 mM DTT and 0.24 mM PMSF, pH-7.4@room temperature.
# (§3) All receptor biding assays were performed in the same manner. The final assay volume was 250 μl and contained from […] of extract protein depending on receptor being assayed along with 5 nM of [^3H) alltrans retinoic acid or 10 nM [^3H) 9-cis retinoic acid and varying concentrations of competing ligand at concentrations that ranged from 0-10^−5 M. The assays were formatted for a 96 well minitube system. Incubations were carried out at 4° C. until equilibrium was achieved. Non-specific binding was defined as that binding remaining in the presence of 1000 nM of the appropriate unlabeled retinoic acid isomer. At the end of the incubation period, 50 μl of 6.25% hydroxyapitite was added in the appropriate wash buffer. The wash buffer consisted of 100 mM KCl, 10 mM Tris and either 5 mM CHAPS (RXR α, β, τ) or 0.5% Triton X-100 (RAR α, β, τ). The mixture was vortexed and incubated for 10 minutes at 4° C., centrifuged and the supernatant removed. The hydroxyapitite was washed three more times with the appropriate wash buffer. The receptor-ligand complex was adsorbed by the hydroxyapitite. The amount of receptor-ligand complex was determined by liquid scintillation counting of hydroxyapitite pellet.
# (§4) After correcting for non-specific binding, IC50 values were determined. […] The IC50 value was determined graphically from a loglogit plot of the data. The Kd values were determined by application of the ChengPrussof equation to the IC50 values, the labeled ligand concentration and the Kd of the labeled ligand.
# (§5) The results of ligand binding assay are expressed in Kd numbers. (See Cheng et al. Biochemical Pharmacology Vol. 22 pp 3099-3108, expressly incorporated herein by reference.)
# RXRΓ = target: T2, RXRΓ (Homo sapiens, UniProt P48443); test: Ligand binding assay; details: receptor expressed in Baculovirus; competition with [3H] retinoic acid; Cheng-Prusoff from IC50
# T2 construct: made in house; used as extract protein
# T2 sequence (P48443 1-463): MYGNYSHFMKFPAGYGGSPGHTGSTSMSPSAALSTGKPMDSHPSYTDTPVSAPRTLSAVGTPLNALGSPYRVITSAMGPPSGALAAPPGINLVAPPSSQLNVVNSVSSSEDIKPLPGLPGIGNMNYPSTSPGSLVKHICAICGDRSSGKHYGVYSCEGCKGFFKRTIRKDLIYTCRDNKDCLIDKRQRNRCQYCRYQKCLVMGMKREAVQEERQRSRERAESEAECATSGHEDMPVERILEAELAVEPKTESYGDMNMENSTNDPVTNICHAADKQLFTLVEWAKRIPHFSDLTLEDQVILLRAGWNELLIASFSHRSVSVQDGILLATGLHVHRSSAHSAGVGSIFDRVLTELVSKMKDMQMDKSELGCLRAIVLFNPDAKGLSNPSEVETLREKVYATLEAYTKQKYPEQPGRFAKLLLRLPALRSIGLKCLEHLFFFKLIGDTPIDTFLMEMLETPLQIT
# Procedure: as §1, §2, §3, §4, §5
smiles,measurement,setting,value
CC1(C)CCC(C)(C)c2cc(C(=O)Nc3ccc(C(=O)O)c(F)c3)ccc21 [Compound 2],Kd,RXRβ,> 1 µM
same,Kd,RXRΓ,> 1 µM
CC1(C)CCC(C)(C)c2cc(C(=O)Nc3ccc(C(=O)O)cc3)c(F)cc21 [Compound 4],Kd,RXRβ,> 1 µM
same,Kd,RXRΓ,> 1 µM
CC1(C)CCC(C)(C)c2c(Br)cc(C(=O)Nc3ccc(C(=O)O)c(F)c3)cc21 [Compound 6],Kd,RXRβ,> 1 µM
same,Kd,RXRΓ,> 1 µM
CC1(C)CCC(C)(C)c2cc(C(=O)Nc3ccc(C(=O)O)c(F)c3)c(O)cc21 [Compound 8],Kd,RXRβ,> 1 µM
same,Kd,RXRΓ,> 1 µM
CC1(C)CC(C)(C)c2cc(C(=O)Nc3ccc(C(=O)O)c(F)c3)cc(Br)c2O1 [Compound 12],Kd,RXRβ,> 1 µM
same,Kd,RXRΓ,> 1 µM
CC1(C)CC(C)(C)c2cc(C(=O)Nc3ccc(C(=O)O)c(F)c3)cc(C(F)(F)F)c2O1 [Compound 14],Kd,RXRβ,> 1 µM
same,Kd,RXRΓ,> 1 µM
"CC1(C)CC(C)(C)c2cc(C(=O)Nc3ccc(C(=O)O)c(F)c3)cc(N=[N+]=[N-])c2O1 [Compound 16, 2-Fluoro-4-[(21′,2′,4′,4′-tetramethyl-8′-azidochroman-6′-yl)carbamoyl]benzoic Acid]",Kd,RXRβ,> 1 µM
same,Kd,RXRΓ,> 1 µM
"CC1(C)CC(C)(C)c2cc(C(=O)Nc3cc(F)c(C(=O)O)c(F)c3)cc(C(F)(F)F)c2O1 [Compound 18, 2,6-Difluoro-4-[(2′,2′,4′,4′-tetramethyl-8′-trifluoromethylchroman-6′-yl)carbamoyl]benzoic Acid]",Kd,RXRβ,> 1 µM
same,Kd,RXRΓ,> 1 µM
CC1(C)CC(C)(C)c2cc(C(=O)Nc3ccc(C(=O)O)c(F)c3)cc(I)c2O1 [Compound 20],Kd,RXRβ,> 1 µM
same,Kd,RXRΓ,> 1 µM
Cc1cc(C(=O)Nc2ccc(C(=O)O)c(F)c2)cc2c1OC(C)(C)CC2(C)C [Compound 22],Kd,RXRβ,> 1 µM
same,Kd,RXRΓ,> 1 µM
CC1(C)CCC(C)(C)c2cc(C(=S)Nc3ccc(C(=O)O)cc3)ccc21 [Compound 26],Kd,RXRβ,> 1 µM
same,Kd,RXRΓ,> 1 µM
CC1(C)CC(C)(C)c2cc(C(=O)Nc3ccc(C(=O)O)c(F)c3)ccc2O1 [Compound 32],Kd,RXRβ,> 1 µM
same,Kd,RXRΓ,> 1 µM
CC1(C)CCC(C)(C)c2c1cc(C(=O)Nc1cc(F)c(C(=O)O)c(F)c1)c(O)c2Br [Compound 36],Kd,RXRβ,> 1 µM
same,Kd,RXRΓ,> 1 µM
CC1(C)CCC(C)(C)c2cc(C(=O)Nc3cc(F)c(C(=O)O)c(F)c3)ccc21 [Compound 38],Kd,RXRβ,> 1 µM
same,Kd,RXRΓ,> 1 µM
